Results reported in publication PMC11206519, “Multi-Endpoint Toxicological Assessment of Chrysin Loaded Oil-in-Water Emulsion System in Different Biological Models” (Nanomaterials, 2024).
Where two headings read alike, the source gives them in different places.

Columns and labels:
S. typhimurium TA98 = assay: Ames test, anti-mutagenicity
Procedure: Furthermore, the anti-mutagenicity of the samples was performed by a similar procedure, as mentioned above. […] The percentage inhibition (decrease revertant colony number) was calculated as in the following equation:Anti-mutagenicity (%) = [1 − (b/a)] × 100 • a = revertant colony number induced via standard mutagen (positive control). • b = revertant colony number induced by standard mutagen in the presence of each sample treatment.
The percent of inhibition between 0–20%, 21–40%, 41–60%, and higher than 60% indicate negligible, weak, moderate, and strong anti-mutagenicity, respectively.

[1] = test system: D. melanogaster trans-heterozygous mwh+/+flr3 larvae of the HB cross; assay: SMART wing spot test, anti-mutagenicity, HB cross
Procedure: The somatic mutation and recombination test, or the wing spot test, using D. melanogaster was employed as an in vivo system to assess the mutagenicity and anti-mutagenicity of chrysin-ES. Two different crosses were conducted: (i) a standard cross (ST) and (ii) a high bioactivation cross (HB). The standard cross larvae were obtained from virgin female of flr3/TM3, Ser crossed with males of mwh/mwh, while the HB cross larvae expressing cytochrome P450 enzymes involved in xenobiotic biotransformation were obtained from virgin females of ORR/ORR; flr^3/In (3LR) TM3, ri p^psep l (3)89Aa bx^34e e Bd^s crossed with males of mwh/mwh. The flies were cultured at a constant temperature of 25 ± 1 °C and 60–70% RH at photoperiod 12:12 (light/dark). To evaluate the mutagenicity of chrysin and chrysin-ES, a hundred larva F1 progenies derived from the above crossing were fed with instant Drosophila medium (Formula 4-24®), Carolina, Burlington, NC, USA) containing chrysin or chrysin-ES (20–120 µg/mL). DI was used as a negative control, while 20 mM urethane (URE) was used as a positive control. The larvae were reared on each medium until pupation at 25 °C. After that, forty wings of surviving flies in each group were collected for mutant analysis. The mutant spots on the wings, including small single spots, large single spots, and twin spots, were counted. The statistical significance was calculated as previously described by Frei and Würgler.
Furthermore, the anti-mutagenicity of the samples was performed by a similar procedure as mentioned above.

[2] = AF-2 0.1 µg/plate, −S9, 5.7 µM/plate
[3] = AF-2 0.1 µg/plate, −S9, 11.4 µM/plate
[4] = AF-2 0.1 µg/plate, −S9, 22.8 µM/plate
[5] = PhIP 0.1 µg/plate, +S9, 0.35 µM/plate
[6] = PhIP 0.1 µg/plate, +S9, 0.70 µM/plate
[7] = PhIP 0.1 µg/plate, +S9, 1.40 µM/plate
[8] = PhIP 0.1 µg/plate, +S9, 2.85 µM/plate
[9] = PhIP 0.1 µg/plate, +S9, 5.70 µM/plate

O=c1cc(-c2ccccc2)oc2cc(O)cc(O)c12 [Chrysin, 5,7-dihydroxyflavone]
Inhibitory Classification (S. typhimurium TA98; [2]): Mild
Number of Revertant Colonies (S. typhimurium TA98; [2]): 166 ± 23
Inhibitory Classification (S. typhimurium TA98; [3]): Moderate
Number of Revertant Colonies (S. typhimurium TA98; [3]): 140 ± 39
Inhibitory Classification (S. typhimurium TA98; [4]): Mild
Number of Revertant Colonies (S. typhimurium TA98; [4]): 164 ± 56
Inhibitory Classification (S. typhimurium TA98; [5]): Moderate
Number of Revertant Colonies (S. typhimurium TA98; [5]): 214 ± 9
Inhibitory Classification (S. typhimurium TA98; [6]): Strong
Number of Revertant Colonies (S. typhimurium TA98; [6]): 153 ± 10
Inhibitory Classification (S. typhimurium TA98; [7]): Strong
Number of Revertant Colonies (S. typhimurium TA98; [7]): 77 ± 12
Inhibitory Classification (S. typhimurium TA98; [8]): Strong
Number of Revertant Colonies (S. typhimurium TA98; [8]): 71 ± 9
Inhibitory Classification (S. typhimurium TA98; [9]): Strong
Number of Revertant Colonies (S. typhimurium TA98; [9]): 45 ± 18
inhibition at […] (S. typhimurium TA98; Salmonella enterica, TYPHIMURIUM, read-out: % mutagenic inhibition, AF-2 0.1 µg/plate, −S9, 5.7 µM/plate): 34%
inhibition at 11.4 µM (S. typhimurium TA98; Salmonella enterica, TYPHIMURIUM, read-out: % mutagenic inhibition, AF-2 0.1 µg/plate, −S9, 11.4 µM/plate): 45%
inhibition at 22.8 µM (S. typhimurium TA98; Salmonella enterica, TYPHIMURIUM, read-out: % mutagenic inhibition, AF-2 0.1 µg/plate, −S9, 22.8 µM/plate): 35%
inhibition at 0.35 µM (S. typhimurium TA98; Salmonella enterica, TYPHIMURIUM, read-out: % mutagenic inhibition, PhIP 0.1 µg/plate, +S9, 0.35 µM/plate): 46%
inhibition at 0.7 µM (S. typhimurium TA98; Salmonella enterica, TYPHIMURIUM, read-out: % mutagenic inhibition, PhIP 0.1 µg/plate, +S9, 0.70 µM/plate): 62%
inhibition at 1.4 µM (S. typhimurium TA98; Salmonella enterica, TYPHIMURIUM, read-out: % mutagenic inhibition, PhIP 0.1 µg/plate, +S9, 1.40 µM/plate): 81%
inhibition at 2.85 µM (S. typhimurium TA98; Salmonella enterica, TYPHIMURIUM, read-out: % mutagenic inhibition, PhIP 0.1 µg/plate, +S9, 2.85 µM/plate): 82%
inhibition at […] (S. typhimurium TA98; Salmonella enterica, TYPHIMURIUM, read-out: % mutagenic inhibition, PhIP 0.1 µg/plate, +S9, 5.70 µM/plate): 89%
Inhibition (%) ([1]; EMS 5 mM + 20 μg/mL): 25%
Inhibitory Classification ([1]; EMS 5 mM + 20 μg/mL): Weak
Mutant spots per individual (number of spots), Large Single ([1]; EMS 5 mM + 20 μg/mL): 1.63 (65)
Mutant spots per individual (number of spots), Small Single ([1]; EMS 5 mM + 20 μg/mL): 5.3 (212)
Mutant spots per individual (number of spots), Total ([1]; EMS 5 mM + 20 μg/mL): 7.80 (312)
Mutant spots per individual (number of spots), Twin ([1]; EMS 5 mM + 20 μg/mL): 0.88 (35)
Inhibition (%) ([1]; EMS 5 mM + 40 μg/mL): 31%
Inhibitory Classification ([1]; EMS 5 mM + 40 μg/mL): Weak
Mutant spots per individual (number of spots), Large Single ([1]; EMS 5 mM + 40 μg/mL): 0.78 (31)
Mutant spots per individual (number of spots), Small Single ([1]; EMS 5 mM + 40 μg/mL): 6.03 (241)
Mutant spots per individual (number of spots), Total ([1]; EMS 5 mM + 40 μg/mL): 7.13 (285)
Mutant spots per individual (number of spots), Twin ([1]; EMS 5 mM + 40 μg/mL): 0.33 (13)
Inhibition (%) ([1]; EMS 5 mM + 80 μg/mL): 60%
Inhibitory Classification ([1]; EMS 5 mM + 80 μg/mL): Moderate
Mutant spots per individual (number of spots), Large Single ([1]; EMS 5 mM + 80 μg/mL): 0.73 (29)
Mutant spots per individual (number of spots), Small Single ([1]; EMS 5 mM + 80 μg/mL): 3.23 (129)
Mutant spots per individual (number of spots), Total ([1]; EMS 5 mM + 80 μg/mL): 4.18 (167)
Mutant spots per individual (number of spots), Twin ([1]; EMS 5 mM + 80 μg/mL): 0.23 (9)
Inhibition (%) ([1]; EMS 5 mM + 120 μg/mL): 76%
Inhibitory Classification ([1]; EMS 5 mM + 120 μg/mL): Strong
Mutant spots per individual (number of spots), Large Single ([1]; EMS 5 mM + 120 μg/mL): 0.20 (8)
Mutant spots per individual (number of spots), Small Single ([1]; EMS 5 mM + 120 μg/mL): 2.20 (88)
Mutant spots per individual (number of spots), Total ([1]; EMS 5 mM + 120 μg/mL): 2.53 (101)
Mutant spots per individual (number of spots), Twin ([1]; EMS 5 mM + 120 μg/mL): 0.13 (5)
Inhibition (%) ([1]; MMC 0.05 mM + 20 μg/mL): 5%
Inhibitory Classification ([1]; MMC 0.05 mM + 20 μg/mL): Negligible
Mutant spots per individual (number of spots), Large Single ([1]; MMC 0.05 mM + 20 μg/mL): 0.85 (34)
Mutant spots per individual (number of spots), Small Single ([1]; MMC 0.05 mM + 20 μg/mL): 3.70 (148)
Mutant spots per individual (number of spots), Total ([1]; MMC 0.05 mM + 20 μg/mL): 4.65 (186)
Mutant spots per individual (number of spots), Twin ([1]; MMC 0.05 mM + 20 μg/mL): 0.10 (4)
Inhibition (%) ([1]; MMC 0.05 mM + 40 μg/mL): 60%
Mutant spots per individual (number of spots), Large Single ([1]; MMC 0.05 mM + 40 μg/mL): 0.18 (7)
Mutant spots per individual (number of spots), Small Single ([1]; MMC 0.05 mM + 40 μg/mL): 1.63 (65)
Mutant spots per individual (number of spots), Total ([1]; MMC 0.05 mM + 40 μg/mL): 1.93 (77)
Mutant spots per individual (number of spots), Twin ([1]; MMC 0.05 mM + 40 μg/mL): 0.13 (5)
Inhibition (%) ([1]; MMC 0.05 mM + 80 μg/mL): 79%
